From patent publication US20160109459A1, “Compositions And Methods For Heparan Sulfate As A Biomarker For Transplant Rejection” (Duke University, priority 2012, published 2016) come the findings set out here.

Test [1] relates to purified T cells from C57BL/6 mice stimulated with bone marrow-derived BALB/c DCs. In words: Allogeneic T cell proliferation assay (3H-thymidine incorporation, IFN-γ ELISA). Particulars: for alloreactive T cell proliferation compared to media alone: WT BALB/c DCs + C57BL/6 T cells, 72 h then 3H-thymidine 16 h, HS 100 μg/mL, HSP70 5 μg/mL, C12-iE-DAP 1 μg/mL, L18-MDP 1 μg/mL. The test is classed as cell-based, mouse. As to the method:
Cells were co-cultured either alone (media) or in the presence of LPS (100 ng/mL), Pam3CSK4 (2 μg/mL), hyaluronan (HA) (100 μg/mL), sonicated-HA (sHA) (100 μg/mL), fibronectin (FN) (100 μg/mL), fibrinogen (Fbn) (100 μg/mL), heparan sulfate (HS) (100 μg/mL), HSP70 (5 μg/mL), HMGB1 (1 μg/mL), C12-iE-DAP (1 μg/mL), or L18-MDP (1 μg/mL) for 72 hours, and then pulsed ^3H-thymidine for 16 hours. Proliferation was determined by ^3H incorporation and results are expressed as cpm±SEM. Baseline alloreactivity is indicated by the dotted line; *p<0.05 compared with media alone. […] Results are representative of three independent experiments.
T cell proliferation assay: DCs were generated from bone marrow as previously described. (Yang, Y. (2004) Nat. Immunol. 5:508-15). CD3^+ T cells were isolated from B6 mice using a CD3 negative selection magnetic bead kit (Invitrogen, Carlsbad, United States). Proliferation assays were performed as previously described. (Brennan, T. V. et al. (2008) Transplantation 85:247-55).
Purified T cells from C57BL/6 mice were stimulated with bone marrow-derived DCs from BALB/c mice and their proliferation was measured by the incorporation of ^3H-thymidine. DAMPs tested included proteins—fibronectin (FN), fibrinogen (Fbn), heat shock protein 70 (HSP70), and high-mobility group protein B1 (HMGB1); and glucosaminoglycans—heparan sulfate (HS) and hyaluronan (HA). For comparison, two well-described PAMPs, lipopolysaccharide (LPS) and a synthetic tripalmitoylated lipopeptide (Pam3CSK4) that are ligands of the TLR4 homodimer and the TLR1/2 heterodimer, respectively, were tested. As nucleotide-binding domain, leucine-rich repeat containing receptors (NLRB) are another family of innate immune receptors, ligands of NLR1 (C12-iE-DAP) and NLR2 (L18-MDP) were further tested.
Next, to investigate whether HS enhanced proliferation of allogeneic T cells was due to the stimulation of TLRs on DCs or T cells, because MyD88 is a common adaptor protein involved in the signal transduction of all TLRs with the exception of TLR3^9, HS was tested against DCs or T cells that were deficient for MyD88. For this purpose, T cells from WT or MyD88^−/− C57BL/6 mice were stimulated with DCs from WT or MyD88^−/− BALB/c mice in an allogeneic proliferation assay in the presence of HS, LPS, Pam3CSK4, or media alone.
HS has been shown as a TLR4 ligand, (Johnson, G. B. et al., (2002) J. Immunol. 168:5233-39; Johnson, G. B., Brunn, G. J. & Platt, J. L. (2004) J. Immunol. 172:20-24). To determine whether the absence of TLR4 expression on stimulating DCs would reduce HS-induced alloreactive T cell proliferation equivalent to MyD88 deficiency, purified T cells from C57BL/6 mice were co-cultured with irradiated WT, TLR4^−/−, and MyD88^−/− BALB/c DCs and proliferation was measured by the incorporation of ^3H-thymidine.
Cytokine analysis: Cell culture supernatants were obtained from DC cultures or T cell proliferation assays and assayed for IL-6, IL-12 and IFN-γ by ELISA (BD Biosciences) according to the manufacturer's standard protocols. HEK 293 supernatants were tested for human IL-8 by ELISA (BioLegend, San Diego, United States).
Allogenic heart transplants were performed between C57BL/6 donors and (BALB/c x DBA.1)F1 recipients. Serum HS was measured by ELISA Immunohistologic staining for HS and CD3 was performed on heart tx tissue. Bone marrow derived dendritic cells (DCs) and purified T cells from WT-, MyD88- or TLR4-deficient mice were used in MLR assays to test for proliferation and cytokine production in response to HS. CD40 and CD80 expression on stimulated DCs was measured by FACS. T cell proliferation was determined by ^3H-thymidine incorporation and CFSE dye dilution assay. HEK293 NF-kB-luciferase reporter cell lines stably expressing CD14, MD2, and TLR4 or TLR2 were used in assays of HS activity.
Background: Dividing cells build labelled thymidine or BrdU into new DNA.

Test [2] concerns BALB/c recipients of B10.D2 Allo-BM+LC (GVHD). In words: Murine Allo-HSCT model of GVHD (B10.D2→BALB/c). The test is classed as in vivo, mouse. On the procedure:
BALB/c recipient of B10.D2 Allo-BM+LC were treated with subcutaneous injections of the HS mimetic, PG545 (20 mg/kg in PBS), or PBS control once weekly, beginning 1 day prior to Allo-HSCT. […] FIG. 9C is a graph showing survival analysis of Allo-BM+LC+PG545 (n=10) compared to Allo-BM+LC+PBS (n=10).
Antibodies and flow cytometry: Anti-CD40 (HM40-3), anti-CD80 (16-10A1), anti-Thy1.1 (OX-7), anti-Ly5.1 (A20) anti-IFN-γ (XMG1.2), rat IgG1 isotype (R3-34), and the BrdU Flow Kit (FITC-labeled) were from BD Biosciences (San Jose, Calif., USA). Intracellular IFN-γ staining was performed as previously described. […] For in vivo BrdU labeling, mice were injected with 50 μg BrdU/gm i.p. 1 hour prior to analysis. Collection of flow cytometric data was acquired using a FACSCanto (BD Biosciences), and events were analyzed using FloJo software (Tree Star, Inc., Ashland, United States). […]
Allo-HSCT: For Allo-HSCT, wild-type (WT) and TLR4−/− BALB/c mice received myeloablative total-body irradiation (8.5 Gy) followed by intravenous infusion of 1×10^7 B10.D2 or BALB/c T-cell depleted bone marrow (TCD-BM). […] To induce GVHD, 5×10^6 lymph node cells from inguinal, axillary, cervical and mesenteric lymph nodes of B10.D2 or BALB/c mice were injected intravenously in addition to TCD-BM.
In another model of acute GVHD, 5×10^6 lymph node cells and 1×10^7 TCD BM from C3H.SW were transferred to C57BL/6 recipients irradiated with 10 Gy. HSCT recipients of these two GVHD models then received either intraperitoneal (i.p.) injections of 2 mg of al-antitrypsin (A1AT, Aralast™, Baxter, Deerfield, United States) resuspended in 200 μL sterile phosphate-buffered saline (PBS), subcutaneous (s.c.) injections of 20 mg/kg PG545 (Progen Pharmaceuticals Limited, Queensland, Australia) in 200 μL PBS, or 200 μL PBS alone at the indicated intervals.
In this model, lethally irradiated BALB/c mice were transplanted with 1×10^7 T cell-depleted bone marrow (TCD-BM) and 5×10^6 lymphocytes (LCs) from B10.D2 mice (Allo-BM+LC). Control mice received B10.D2 TCD-BM only (Allo-BM only) or syngeneic BALB/c TCD-BM and 5×10^6 BALB/c LCs (Syn-BM+LC).

Test [3] relates to C57BL/6 recipients of C3H.SW TCD-BM and LCs (GVHD). In words: Second GVHD model (C3H.SW→C57BL/6). The class given is in vivo, mouse. The following applies: A1AT 2 mg i.p. every 3 days; p=0.032. As to the method: FIG. 7A is a graph showing serum HS concentrations at the indicated time points following Allo-HSCT (B10.D2→BALB/c; 1×10^7 B10.D2 TCD-BM and 5×10^6 B10.D2 LC) treated with A1AT (2 mg) or PBS every 3 days by i.p. injection, starting 1 day prior to transplantation; n=3 per data point, as determined by ELISA assay; *p<0.05. FIG. 7B is a graph showing survival and FIG. 7C is a graph showing GVHD clinical score of Allo-BM only (n=5) or Allo-BM+LC treated with A1AT (n=8) or PBS (n=5). Data is from one of two independent experiments with identical results. […] Survival of BALB/c recipients of Allo-BM+LC from B10.D2 donors (n=11) and TLR4^−/− BALB/c recipients of Allo-BM+LC from B10.D2 donors administered A1AT (n=8) or PBS (n=14) every 3 days by intraperitoneal injection, starting 1 day prior to transplantation.
In another model of acute GVHD, 5×10^6 lymph node cells and 1×10^7 TCD BM from C3H.SW were transferred to C57BL/6 recipients irradiated with 10 Gy. HSCT recipients of these two GVHD models then received either intraperitoneal (i.p.) injections of 2 mg of al-antitrypsin (A1AT, Aralast™, Baxter, Deerfield, United States) resuspended in 200 μL sterile phosphate-buffered saline (PBS), subcutaneous (s.c.) injections of 20 mg/kg PG545 (Progen Pharmaceuticals Limited, Queensland, Australia) in 200 μL PBS, or 200 μL PBS alone at the indicated intervals. […]

The next test deals with BALB/c DCs. In words: DC maturation: surface expression of CD40 and CD80 by FACS. The following applies: 24 h; HS 100 μg/mL, Pam3CSK4 2 μg/mL. The class given is cell-based, mouse. On the procedure: FIG. 3A is a graph showing WT, TLR4^−/−, or MyD88^−/− BALB/c DCs (2×10^5/well) were stimulated with LPS (100 ng/mL), HS (100 μg/mL), or Pam3CSK4 (2 μg/mL), or left unstimulated (media) for 24 hours, and measured for surface expression of co-stimulatory molecules CD40 and CD80 by FACS analysis. FIGS. 3B and 3C are graphs showing WT, MyD88^−/−, and TLR4^−/− BALB/c cultured DCs were co-cultured with media alone, LPS, HS, or Pam3CSK4 as in (A) and culture supernatants were tested for IL-6 (B) and IL-12 (C) by ELISA. Data are representative of three independent experiments; *p<0.05 compared with media alone.
To investigate how activation of DCs by HS promoted the alloreactive T cell response, an as DC maturation and production of pro-inflammatory cytokines are key initial events in triggering adaptive immune responses, the ability of HS to upregulate DC expression of costimulatory molecules, CD40 and CD80, and pro-inflammatory cytokines, IL-6 and IL-12 was tested.
Antibodies and flow cytometry: Anti-CD40 (HM40-3), anti-CD80 (16-10A1), anti-Thy1.1 (OX-7), anti-Ly5.1 (A20) anti-IFN-γ (XMG1.2), rat IgG1 isotype (R3-34), and the BrdU Flow Kit (FITC-labeled) were from BD Biosciences (San Jose, Calif., USA). Intracellular IFN-γ staining was performed as previously described. (Brennan, T. V. et al. (2008) Transplantation 85:247-55). For in vivo BrdU labeling, mice were injected with 50 μg BrdU/gm i.p. 1 hour prior to analysis. Collection of flow cytometric data was acquired using a FACSCanto (BD Biosciences), and events were analyzed using FloJo software (Tree Star, Inc., Ashland, United States).
For orientation: Flow cytometry measures light scatter and fluorescence of single cells or particles in a stream.

The mark [4] stands for this setting: splenocytes six days after transplantation, vs PBS.

For the molecule `CCCCCCCCCCCC(=O)N[C@H](CCC(=O)NC(CCCC(N)C(=O)O)C(=O)O)C(=O)O` (some centres unmarked) [C12-iE-DAP, reference compound], in test [1], the “alloreactive T cell proliferation compared to media alone” value is “Neither of the NLR ligands tested produced a significant increase”.
Take `CC(C)CCC[C@@H](C)[C@H]1CC[C@H]2[C@@H]3CC[C@H]4C[C@@H](O[C@@H]5O[C@H](COS(=O)(=O)O)[C@@H](O[C@H]6O[C@H](COS(=O)(=O)O)[C@@H](O[C@H]7O[C@H](COS(=O)(=O)O)[C@@H](O[C@H]8O[C@H](COS(=O)(=O)O)[C@@H](OS(=O)(=O)O)[C@H](OS(=O)(=O)O)[C@H]8OS(=O)(=O)O)[C@H](OS(=O)(=O)O)[C@H]7OS(=O)(=O)O)[C@H](OS(=O)(=O)O)[C@H]6OS(=O)(=O)O)[C@H](OS(=O)(=O)O)[C@H]5OS(=O)(=O)O)CC[C@]4(C)[C@H]3CC[C@]12C` [PG545, reference compound]: the “post-transplant serum HS levels compared to PBS” value in test [2] (PG545 20 mg/kg s.c. once per week from one day prior to transplant) was “higher”. Further, in test [2] (PG545 20 mg/kg s.c. weekly, PBS 29, p<0.001), the “rate of GVHD (survival analysis)” value turned out to be 21 days. For the same molecule, the “percentage of proliferating donor CD8 T cells (BrdU uptake)” value in test [2] (post-transplant day 6, PG545 20 mg/kg s.c. weekly, PBS 12.9±2.0, n=3, p<0.05) amounted to 23.2±2.3.
“A1AT: α1-antitrypsin (Aralast, Baxter), serum serine protease inhibitor”: the “GVHD pathology scores (ear skin)” value in test [2] (3 weeks post-transplant, vs PBS) was “significantly lower”. Further, in test [2] (A1AT 2 mg i.p. every 3 days, PBS controls 28.0, p<0.001), the “survival (MST)” value stood at 48.5 days. Further, in test [2] (Allo-BM+LC recipients, 10-point scale, p=0.03), the “GVHD clinical score curve” value is recorded as “significantly lower”. For the same molecule, the “survival in TLR4−/− recipients compared to PBS treated TLR4−/− mice” value in test [2] (TLR4−/− BALB/c recipients of B10.D2 Allo-BM+LC, p=0.30) is reported as “no further survival benefit”. Further, the “serum HS levels compared to PBS” value in test [2] (days 9 and 14 following HSCT, A1AT 2 mg i.p. every 3 days from 1 day prior to transplant) is recorded as “significantly lower”. In addition, in test [2] (setting [4]), the “BrdU incorporation by donor Thy1.1+ T cells” value is reported as “significantly reduced” and the “IFN-γ production by donor Thy1.1+ T cells” value is listed as “significantly reduced”. Also, the “survival compared with PBS treated group” value in test [3] is “significant survival benefit”.
“HSP70: heat shock protein 70 (Assay Designs), a DAMP [reference compound]”: the “alloreactive T cell proliferation compared to media alone” value in test [1] is “significantly increased”.
On to Pam3CSK4 [reference compound], for which, in the test on BALB/c DCs, the “upregulation of CD40 and CD80 on MyD88−/− DCs” value is “but not on MyD88^−/− DCs”; the “upregulation of CD40 and CD80 on TLR4−/− DCs” value is listed as “able to upregulate”; the “upregulation of CD40 and CD80 on WT DCs” value is “able to upregulate”.
For polymyxin B [PMB, reference compound], the “effect on LPS-induced proliferation” value in test [1] (PMB 10 ug/mL, LPS 100 ng/mL) was “significant decrease”.
